Experimental data from patent publication EP4076431B1, “COMPOSITION AND METHOD FOR THE PREVENTION AND TREATMENT OF TYPE 2 DIABETES” (Vector Vitale IP LLC, priority 2019, dated 2021).
Where “and” joins values, the source holds several entries; their conditions need not be identical. Equal entries are not always repeated.

Columns and labels:
[1] = Glucose tolerance test; details: dose 5 mg/kg in a volume of 2 ml, individual animals 1-5
Protocol: Animals that had access only to water 16 hours before the start of the experiment were used in the glucose tolerance test. Rats were anesthetized with intraperitoneal injection of sodium thiopental at a dose of 40 mg/kg. 5 animals were used within the same experimental group. Basal levels of glycaemia were determined in rats, after which the animals were fed 2 ml of aqueous glucose solution at a dose of 3 g/kg. The concentration of glucose was determined 60 minutes after the start of the experiment.
A glucose tolerance test was performed to determine a potential effect of zinc isotope on the dynamics of glucose concentration in the blood flow. Experimental procedure: laboratory animals are given intragastric injections of either normal saline solution or zinc in saline solution (5 mg/kg) in a volume of 2 ml. After that, 60 minutes after the aforementioned injections, the basal level of glucose is measured and a glucose solution is injected in an amount of 3 g/kg in a volume of 2 ml using the same route of administration. The blood glucose levels are measured again 60 minutes after injecting the glucose solution.

[2] = Accumulation of metals in liver and kidney tissues, intact rats; format: in vivo; details: day 1 and day 7 after discontinuation; intraperitoneal
Protocol: The total kidney, liver and muscle homogenates were prepared as follows. Organ excision and homogenization were carried out at a temperature of 1-4°C. Homogenization of tissues was carried out in 50 mM Tris-HCl buffer (pH 7.4) which contained 140 mM NaCl, 1 mM EDTA. The volume of the used buffer in ml was 5 times larger than the mass of isolated organs in grams. The isolated liver was perfused with chilled saline (0.9% NaCl) via the portal vein using a syringe. The minced liver was transferred to a homogenizer with a finely ground Teflon pestle and homogenized in chilled buffer. An isolated pair of kidneys was perfused with chilled saline, released from adipose tissue and minced with scissors. The minced tissue was transferred to a homogenizer with a finely ground Teflon pestle and homogenized in chilled buffer. The total kidney and liver homogenates were centrifuged at 600 g for 15 minutes. The liquid was decanted after the mince settled down and was centrifuged again at 15,000 g for 15 minutes. These two procedures allowed us to get rid of nuclear and mitochondrial debris. Aliquots of the prepared homogenates were frozen in nitrogen (Rybalchenko V.K., Koganov M.M. Structure and function of membrane 1988. - 312 pp).

[3] = Blood glucose, streptozotocin-induced type I diabetes model, oral administration; details: Table 22; streptozotocin diabetic rats; 800 µg of zinc per animal orally, 7 doses every other day; n = 10
Protocol: Number of animals: 10 (males). Animals were housed in cages, 4 per cage, and provided ad libitum access to food and water. To induce diabetes in animals, each animal was given a single injection of streptozotocin solution at a dose of 6 mg per 100 g of animal weight dissolved in 10 mM citrate buffer (pH 4.5) intraperitoneally. The fasted animals were tested for sufficient levels of glycemia two days after induction of diabetes. Rats with blood glucose concentrations within the range >20 mmol/l were used in the experiments.
24 hours later, 7 doses of the test substance were administered to the animals orally. Frequency of administration - every other day.
Dose of administration - 800 µg of zinc per animal.
The glucose concentration in whole blood was measured by the glucose oxidase method using a GlucoDr Auto AGM-4000 blood glucose meter (Allmedicus Co., Ltd., Korea). All procedures were performed according to the manufacturer's instructions
Type I experimental diabetes was induced by a single intraperitoneal injection of streptozotocin solution at a dose of 6 mg per 100 g of animal weight dissolved in 10 mM citrate buffer (pH 4.5). The rats of the control group were administered 10 mM citrate buffer (pH 4.5) by the aforementioned method. The whole blood glucose concentrations were measured two days after induction of diabetes in rats.

[4] = Anthropometric values and food consumption, high-fat diet induced obesity model; details: Table 3
Description: Before the start of the experiment, animals were maintained on a standard diet of the vivarium. To induce obesity in experimental animals, they were fed high-fat diet which consisted of standard feed (60%), lard (10%), chicken eggs (10%), sucrose (9%), peanuts (5%), dry milk (5%) and sunflower oil (1%) (1%) (see X. H. Shen et al., Exp. Biol. and Med. 235: 47-51 (2010)).
Animals in all groups were weighed once a week after an overnight fast. The amount of feed to be consumed by the animals was determined daily. At the end of a 10-week period of the development of obesity models, 24 hours after the last administration of the zinc isotope solution, animals were removed from their cages and decapitated.
The body mass index (BMI) (the ratio of body weight (g) to the square of body length (cm^2)) was calculated at the end of the experiment.
Animals with an initial weight of 195-205±10 g maintained on the standard diet of the vivarium before performing obesity models were used in the experiments. To induce obesity in experimental animals, they were fed high-fat diet which consisted of standard feed (60%), lard (10%), chicken eggs (10%), sucrose (9%), peanuts (5%), dry milk (5%) and sunflower oil (1%), Shen X. et al., Experimental Biology and Medicine. - 2010. - Nº 235. - P. 47-51.
Animals in all groups were weighed once a week after an overnight fast. The amount of feed to be consumed by the animals was determined daily.
The body mass index (BMI) (the ratio of body weight (g) to the square of body length (cm2)) was calculated at the end of the experiment.

[5] = test system: IL-6; experiment: Cytokine profile, immunoenzyme method, obesity model: IL-6; details: Table 7, serum
Protocol: (§1) Adipose tissue was crushed using cold scissors then transferred to a homogenizer with a loose-fitting Teflon pestle. The tissue was homogenized using approximately 30 strokes of the pestle in cold homogenization buffer (50 mM Tris-HCl (pH 7.4) containing 130 mM NaCl). Primary homogenate thus obtained was centrifuged at 600 g for 15 minutes. The supernatant was carefully collected and re-centrifuged at 15,000 g for 15 minutes. The supernatant was then frozen and stored at -80°C until the experiments.
(§2) The levels of insulin, interleukins and adipokines were determined using immunoenzyme method (Halenova TI et al. RSC Adv. 2016;6: 100046-55), which was carried out in microplates with a sorption capacity in accordance with the soluble protein test procedure. The antigen solution, previously diluted with 0.1 M NaHCOs buffer, pH 9.6, to a concentration of 10 µg/ml, was incubated in the plate wells for 12 hours at 4°C. Unbound material was removed by washing the wells three times with TBS buffer, first with 0.05% Tween-20, then without Tween-20. Non-specific binding sites were blocked by adding a solution of 5% skim milk or a solution of 1% bovine serum albumin to the plate wells and incubating them for 60 minutes at 37°C. […]
(§3) The absorbance at a wavelength of 492 nm was measured using a µQuant microplate spectrophotometer (BioTek Instruments).

[6] = test system: IFN-γ; experiment: Cytokine profile, immunoenzyme method, obesity model: IFN-γ; details: Table 7, serum
Protocol: as §1, §2, §3

[7] = test system: glycated hemoglobin; experiment: Glycated hemoglobin, streptozotocin-induced type I diabetes model; details: Table 22; streptozotocin diabetic rats; 800 µg of zinc per animal orally, 7 doses; n = 10
Protocol: The levels of glycated hemoglobin in whole blood of rats was measured spectrophotometrically in accordance with the established procedure. The assay was performed using a standard assay kit manufactured by Lachema (Czech Republic).
The method for glycated hemoglobin measurement is based on the fact that the stable form of glycohemoglobin (HbA1c) contains 1-deoxy-1-(N-valyl) fructose, which is dehydrated with phosphoric acid to form a colored complex with an absorption spectrum at 433 nm. Neither the labile form of glycohemoglobin nor fetal hemoglobin interferes with the determination of glycated hemoglobin.
Total hemoglobin was measured spectrophotometrically. […] The absorbance was read at a wavelength of 540 nm against the transforming solution. The total hemoglobin fraction was calculated according to the manufacturer's recommendations using the following formula: Hb = (A∗367,7)/(4,92) [formula] where Hb is total hemoglobin, A is optical density of the test sample. […]
Hemolysate was prepared by adding an anticoagulant, 3.8% solution of Na citrate diluted at 1:10, to freshly collected blood. […] The optical density of the samples was measured on a spectrophotometer at a wavelength of 443 nm against distilled water. […]
Concentration of glycohemoglobin was expressed as µmols of fructose per g of hemoglobin (Glycated hemoglobin / Assay kit // Pliva-lachema diagnostica. - 2008. - 10003258.).

[8] = test system: collagen fibers; experiment: Morphometric analysis of liver fibrosis, Van Gieson staining, obesity model; details: rats eating a standard diet, treated
Protocol: To carry out a histochemical reaction to determine the level of liver fibrosis, Van Gieson's picro-fuchsin method of staining was used. To do this, the sections were first soaked with water and then re-stained with Bömer's hematoxylin for 3-4 minutes. The sections were then rinsed in distilled water and stained with Van Gierson's picro-fuchsin for 3 minutes. Once stained, the sections were rinsed in distilled water, dehydrated in 96% alcohol, cleared in dioxane and xylene, and enclosed in a balsam under a coverslip. […] All parameters were measured using ImageJ software.

[9] = test system: IL-1; experiment: Cytokine profile, immunoenzyme method, obesity model: IL-1; details: Table 7, serum
Protocol: as §1, §2, §3

[10] = test system: IL-4; experiment: Cytokine profile, immunoenzyme method, obesity model: IL-4; details: Table 7, serum
Protocol: as §1, §2, §3

[11] = test system: TGF; experiment: Cytokine profile, immunoenzyme method, obesity model: TGF; details: Table 7, serum
Protocol: as §1, §2, §3

[12] = C+zinc: control rats, standard diet
[13] = DIO+zinc: diet-induced obesity rats

With `CC(=O)[O-].CC(=O)[O-].[Zn+2]` [Zn acetate, Zn acetate (Zn(CH3COO)2), reference compound] the “60 min (1 h after glucose administration)” value ([1]; Table 2, blood glucose after glucose 3 g/kg) was 7,2 (2×) and 6,9 and 7,3 and 6,8, the “0 min (1 h after effector administration)” value ([1]; Table 2, blood glucose before glucose load, fast overnight) was 4,6 and 5,2 (2×) and 4,9 and 5,1 and the “accumulation of other metals (manganese, copper) in kidney and liver tissues” value [2] was “within the same concentrations as in the control group of animals”. For the same compound, the “accumulation of zinc in kidney and liver tissues” value [2] was “significantly increased”.

In the case of Zinc asparaginate [^64Zne], the Glucose [3] was 20 ± 3 mM, the “Amount of food consumed” value [4, 12] was 32 g/day and the “Calorie content of food” value [4, 12] was 490 kJ/day. For the same compound, the “Weight gain as of the end of the experiment” value [4, 12] was 59%, the BMI ([4]; C+zinc: control rats, standard diet, ^64Zne administration) was 0.59 g/cm^2 and the “Amount of food consumed” value [4, 13] was 29 g/day. The “Calorie content of food” value [4, 13] was 823 kJ/day, the “Weight gain as of the end of the experiment” value [4, 13] was 62% and the BMI ([4]; DIO+zinc: diet-induced obesity rats, ^64Zne 2.25 mg/ml, 2 ml intragastrically every third day, 10th week) was 0.65 g/cm^2. For the same compound, the “Levels, Pro-inflammatory cytokines, IL-6” value ([5]; C+^64Zne) was 4.3±0.2 RU/mg protein, the “Levels, Pro-inflammatory cytokines, IL-6” value ([5]; DIO+^64Zne) was 5.1±0.4 RU/mg protein and the “Levels, Pro-inflammatory cytokines, IFN-γ” value ([6]; C+^64Zne) was 4.6±0.6 RU/mg protein. The “Levels, Pro-inflammatory cytokines, IFN-γ” value ([6]; DIO+^64Zne) was 4.1±1.2 RU/mg protein, the Glycated hemoglobin [7] was 0,51 ± 0,05 µmol fructose/g Hb and the “increase in the area of deposition of collagen fibers” value [8] was 2 fold. The “Levels, Pro-inflammatory cytokines, IL-1” value ([9]; C+^64Zne: control rats) was 3.5±0.7 RU/mg protein, the “Levels, Pro-inflammatory cytokines, IL-1” value ([9]; DIO+^64Zne: diet-induced obesity rats) was 4.2±0.4 RU/mg protein and the “accumulation of other metals (manganese, copper) in kidney and liver tissues” value [2] was “within the same concentrations as in the control group of animals”. For the same compound, the “accumulation of zinc in kidney and liver tissues” value [2] was “significantly increased”, the “Levels, Anti-inflammatory cytokines, IL-4” value ([10]; C+^64Zne) was 4.6±0.8 RU/mg protein and the “Levels, Anti-inflammatory cytokines, IL-4” value ([10]; DIO+^64Zne) was 5.6±1.6 RU/mg protein. For the same compound, the “Levels, Anti-inflammatory cytokines, TGF” value ([11]; C+^64Zne) was 4.1±0.4 RU/mg protein and the “Levels, Anti-inflammatory cytokines, TGF” value ([11]; DIO+^64Zne) was 5.7±0.3 # RU/mg protein.
